Source: publication PMC8963254, “Effects of Lysine N-ζ-Methylation in Ultrashort Tetrabasic Lipopeptides (UTBLPs) on the Potentiation of Rifampicin, Novobiocin, and Niclosamide in Gram-Negative Bacteria” (Antibiotics, 2022)
Converted amounts (≈) assume the structure as drawn. Read-outs that look alike come from different tables or passages of the source. Non-standard residues stand in square brackets, D forms with d. Residues, ends and D or L forms follow the SMILES beside them. *: point of attachment. Lys(Me) = CNCCCC[C@H](N)C(=O)O; Octanoyl = CCCCCCCC(=O)*

Experiments:
A. baumannii AB92247 = assay: microbe, parasite or virus in culture; format: cell-based, Acinetobacter baumannii; settings: AB92247, 18 h
How it was run: (§1)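 Turbidity at 590 nm defined growth, from which the MIC was taken. Cultures at a final density of 5 × 10^5 CFU/mL were exposed to a range of compound levels at 37 °C for 18 h in a CLSI-based microdilution format.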

A. baumannii AB027 = assay: microbe, parasite or virus in culture; format: cell-based, Acinetobacter baumannii; settings: AB027, 18 h
How it was run: as §1

MSSE 81388 [1] = format: cell-based, Staphylococcus epidermidis; settings: 18 h
How it was run: as §1

MRSE 61589 [2] = format: cell-based, Staphylococcus epidermidis; settings: 61589, 18 h
How it was run: as §1

A. baumannii ATCC 17978 = format: cell-based, Acinetobacter baumannii; settings: ATCC 17978, 18 h
How it was run: as §1

MSSE 81388 [3] = format: cell-based, Staphylococcus epidermidis
How it was run: (§2)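 Checkerboard synergy assay: antibiotic and OMP combined at varying concentrations with 5 × 10^5 CFU/mL inoculum (final), 37 °C, 18 h; growth read as turbidity at 590 nm. FICI = sum of FICs (MIC in combination / MIC alone); ≤0.5 synergistic, 0.5–4 additive, >4 antagonistic.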

MRSE 61589 [4] = format: cell-based, Staphylococcus epidermidis
How it was run: as §2

E. coli 94393 [5] = assay: microbe, parasite or virus in culture; format: cell-based, Escherichia coli; settings: 94393, 18 h
How it was run: as §1

E. coli 94474 [6] = assay: microbe, parasite or virus in culture; format: cell-based, Escherichia coli; settings: 94474, 18 h
How it was run: as §1

E. coli ATCC 25922 [7] = format: cell-based, Escherichia coli; settings: ATCC 25922, 18 h
How it was run: as §1

E. faecalis ATCC 29212 [8] = format: cell-based, Enterococcus faecalis; settings: ATCC 29212, 18 h
How it was run: as §1

E. faecium ATCC 27270 [9] = format: cell-based, Enterococcus faecium; settings: ATCC 27270, 18 h
How it was run: as §1

K. pneumoniae 113250 [10] = assay: microbe, parasite or virus in culture; format: cell-based, Klebsiella pneumoniae; settings: 113250, 18 h
How it was run: as §1

K. pneumoniae 113250 [11] = format: cell-based, Klebsiella pneumoniae; settings: for MICUTBLP: UTBLP alone
How it was run: as §2

E. coli ATCC 25922 [12] = format: cell-based, Escherichia coli; settings: for MICUTBLP: UTBLP alone
How it was run: as §2

E. coli 94393 [13] = format: cell-based, Escherichia coli; settings: for MICUTBLP: UTBLP alone
How it was run: as §2

E. coli 94474 [14] = format: cell-based, Escherichia coli; settings: for MICUTBLP: UTBLP alone
How it was run: as §2

E. faecium ATCC 27270 [15] = format: cell-based, Enterococcus faecium
How it was run: as §2

MRSA ATCC 33592 = format: cell-based, Staphylococcus aureus
How it was run: as §2

S. aureus ATCC 29213 = format: cell-based, Staphylococcus aureus
How it was run: as §2

E. faecalis ATCC 29212 [16] = format: cell-based, Enterococcus faecalis
How it was run: as §2

[17] = UTBLP alone, plate with chloramphenicol
[18] = UTBLP in combination with chloramphenicol
[19] = chloramphenicol in combination with the UTBLP
[20] = UTBLP in combination with novobiocin
[21] = UTBLP in combination with rifampicin
[22] = novobiocin in combination with the UTBLP
[23] = rifampicin in combination with the UTBLP

Compound: CCCCCCCC(=O)NCCCC[C@H](NC(=O)CCCCCCC)C(=O)N[C@@H](CCCCNC)C(=O)N[C@@H](CCCCNC)C(=O)N[C@@H](CCCCNC)C(=O)N[C@@H](CCCCNC)C(N)=O [UTBLP 6] (Octanoyl-K(Octanoyl)[Lys(Me)][Lys(Me)][Lys(Me)][Lys(Me)]-NH2)
- MIC (A. baumannii AB92247): 32 mg/L (≈ 33.1 µM)
- MIC (A. baumannii AB027): > 128 mg/L
- MIC (MSSE 81388 [1]): 16 mg/L (≈ 16.6 µM)
- MIC (MRSE 61589 [2]): 16 mg/L (≈ 16.6 µM)
- MIC (A. baumannii ATCC 17978): 64 mg/L (≈ 66.2 µM)
- Interpretation (MSSE 81388 [3]; UTBLP + chloramphenicol): Additive (0.5 < x ≤ 4 is additive)
- MICUTBLP (MSSE 81388 [3]; [17]): 16 µg/mL
- MICUTBLP [MICcombo] (MSSE 81388 [3]; [18]): 0.25 µg/mL
- MICchloramphenicol [MICcombo] (MSSE 81388 [3]; [19]): 4 µg/mL
- Interpretation (MRSE 61589 [4]; UTBLP + chloramphenicol): Additive (0.5 < x ≤ 4 is additive)
- MICUTBLP (MRSE 61589 [4]; [17]): 16 µg/mL
- MICUTBLP [MICcombo] (MRSE 61589 [4]; [18]): 8 µg/mL
- MICchloramphenicol [MICcombo] (MRSE 61589 [4]; [19]): 4 µg/mL
- MIC (E. coli 94393 [5]): 64 mg/L (≈ 66.2 µM)
- MIC (E. coli 94474 [6]): > 128 mg/L
- MIC (E. coli ATCC 25922 [7]): 32 mg/L (≈ 33.1 µM)
- MIC (E. faecalis ATCC 29212 [8]): 32 mg/L (≈ 33.1 µM)
- MIC (E. faecium ATCC 27270 [9]): 64 mg/L (≈ 66.2 µM)
- MIC (K. pneumoniae 113250 [10]): > 128 mg/L
- Interpretation (K. pneumoniae 113250 [11]; UTBLP + novobiocin): Synergy (FICI ≤ 0.5 is synergistic)
- Interpretation (K. pneumoniae 113250 [11]; UTBLP + rifampicin): Synergy (FICI ≤ 0.5 is synergistic)
- MICUTBLP (K. pneumoniae 113250 [11]; plate with novobiocin): > 128 µg/mL
- MICUTBLP (K. pneumoniae 113250 [11]; plate with rifampicin): > 128 µg/mL
- MICUTBLP [MICcombo] (K. pneumoniae 113250 [11]; [20]): 16 µg/mL
- MICUTBLP [MICcombo] (K. pneumoniae 113250 [11]; [21]): 16 µg/mL
- MICantibiotic [MICcombo] (K. pneumoniae 113250 [11]; [22]): 2 µg/mL
- MICantibiotic [MICcombo] (K. pneumoniae 113250 [11]; [23]): 1 µg/mL
- Interpretation (E. coli ATCC 25922 [12]; UTBLP + chloramphenicol): Synergy (FICI ≤ 0.5 is synergistic)
- Interpretation (E. coli ATCC 25922 [12]; UTBLP + niclosamide): Synergy (FICI ≤ 0.5 is synergistic)
- Interpretation (E. coli ATCC 25922 [12]; UTBLP + novobiocin): Synergy (FICI ≤ 0.5 is synergistic)
- Interpretation (E. coli ATCC 25922 [12]; UTBLP + rifampicin): Synergy (FICI ≤ 0.5 is synergistic)
- MICUTBLP (E. coli ATCC 25922 [12]; plate with chloramphenicol): 32 µg/mL
- MICUTBLP (E. coli ATCC 25922 [12]; plate with niclosamide): 32 µg/mL
- MICUTBLP (E. coli ATCC 25922 [12]; plate with novobiocin): 32 µg/mL
- MICUTBLP (E. coli ATCC 25922 [12]; plate with rifampicin): 32 µg/mL
- MICUTBLP [MICcombo] (E. coli ATCC 25922 [12]; [18]): 8 µg/mL
- MICUTBLP [MICcombo] (E. coli ATCC 25922 [12]; UTBLP in combination with niclosamide): 1 µg/mL
- MICUTBLP [MICcombo] (E. coli ATCC 25922 [12]; [20]): 2 µg/mL
- MICUTBLP [MICcombo] (E. coli ATCC 25922 [12]; [21]): 4 µg/mL
- MICantibiotic [MICcombo] (E. coli ATCC 25922 [12]; [19]): 2 µg/mL
- MICantibiotic [MICcombo] (E. coli ATCC 25922 [12]; niclosamide in combination with the UTBLP): 2 µg/mL
- MICantibiotic [MICcombo] (E. coli ATCC 25922 [12]; [22]): 0.5 µg/mL
- MICantibiotic [MICcombo] (E. coli ATCC 25922 [12]; [23]): 0.063 µg/mL
- Interpretation (E. coli 94393 [13]; UTBLP + novobiocin): Synergy (FICI ≤ 0.5 is synergistic)
- Interpretation (E. coli 94393 [13]; UTBLP + rifampicin): Synergy (FICI ≤ 0.5 is synergistic)
- MICUTBLP (E. coli 94393 [13]; plate with novobiocin): 64 µg/mL
- MICUTBLP (E. coli 94393 [13]; plate with rifampicin): 64 µg/mL
- MICUTBLP [MICcombo] (E. coli 94393 [13]; [20]): 4 µg/mL
- MICUTBLP [MICcombo] (E. coli 94393 [13]; [21]): 4 µg/mL
- MICantibiotic [MICcombo] (E. coli 94393 [13]; [22]): 1 µg/mL
- MICantibiotic [MICcombo] (E. coli 94393 [13]; [23]): 0.25 µg/mL
- Interpretation (E. coli 94474 [14]; UTBLP + novobiocin): Synergy (FICI ≤ 0.5 is synergistic)
- Interpretation (E. coli 94474 [14]; UTBLP + rifampicin): Synergy (FICI ≤ 0.5 is synergistic)
- MICUTBLP (E. coli 94474 [14]; plate with novobiocin): > 128 µg/mL
- MICUTBLP (E. coli 94474 [14]; plate with rifampicin): > 128 µg/mL
- MICUTBLP [MICcombo] (E. coli 94474 [14]; [20]): 16 µg/mL
- MICUTBLP [MICcombo] (E. coli 94474 [14]; [21]): 16 µg/mL
- MICantibiotic [MICcombo] (E. coli 94474 [14]; [22]): 1 µg/mL
- MICantibiotic [MICcombo] (E. coli 94474 [14]; [23]): 0.125 µg/mL
- Interpretation (E. faecium ATCC 27270 [15]; UTBLP + chloramphenicol): Additive (0.5 < x ≤ 4 is additive)
- MICUTBLP (E. faecium ATCC 27270 [15]; [17]): 64 µg/mL
- MICUTBLP [MICcombo] (E. faecium ATCC 27270 [15]; [18]): 4 µg/mL
- MICchloramphenicol [MICcombo] (E. faecium ATCC 27270 [15]; [19]): 4 µg/mL
- Interpretation (MRSA ATCC 33592; UTBLP + chloramphenicol): Additive (0.5 < x ≤ 4 is additive)
- MICUTBLP (MRSA ATCC 33592; [17]): > 128 µg/mL
- MICUTBLP [MICcombo] (MRSA ATCC 33592; [18]): 0.25 µg/mL
- MICchloramphenicol [MICcombo] (MRSA ATCC 33592; [19]): 64 µg/mL
- MICUTBLP (S. aureus ATCC 29213; [17]): 128 µg/mL
- MICUTBLP [MICcombo] (S. aureus ATCC 29213; [18]): 16 µg/mL
- MICchloramphenicol [MICcombo] (S. aureus ATCC 29213; [19]): 4 µg/mL
- Interpretation (E. faecalis ATCC 29212 [16]; UTBLP + chloramphenicol): Additive (0.5 < x ≤ 4 is additive)
- MICUTBLP (E. faecalis ATCC 29212 [16]; [17]): 32 µg/mL
- MICUTBLP [MICcombo] (E. faecalis ATCC 29212 [16]; [18]): 4 µg/mL
- MICchloramphenicol [MICcombo] (E. faecalis ATCC 29212 [16]; [19]): 4 µg/mL
